Laboratory results from patent EP0194905A1, “5',5'''-P1,P4-diadenosine-tetraphosphate alpha-,beta-phosphorylase and its use in the preparation of isotope-labelled nucleotides” (priority 1985, dated 1986).

How the values were obtained:
Ap4A-phosphorylase [1] = target: T1, Ap4A-phosphorylase (Saccharomyces cerevisiae, UniProt P16550); assay: Ap4A-phosphorylase activity: initial rates of phosphorolysis of Ap4A and related substrates (PEI-cellulose TLC, radioactivity); assay type: biochemical; details: for substrat de l'Ap4A-phosphorylase (behaviour as substrate): compounds structurally related to Ap4A, in presence of phosphate; for conversion de l'Ap4A when phosphate is replaced: 10 mM in place of phosphate, 500 µM MnCl2 or 5 mM MgCl2; for vitesses de phosphorolyse, % du taux observé pour l'Ap4A: standard incubation medium, 500 uM substrate
T1 construct: l'Ap4A phosphorylase est constituée d'une seule chaîne; endogenous in cells; host or cells: Saccharomyces cerevisiae yeast cells; enzyme purified by ammonium sulfate, DEAE-Sephacel, Sephadex G-100, hydroxyapatite and Sephadex G-75 superfine
T1 sequence (P16550 1-321): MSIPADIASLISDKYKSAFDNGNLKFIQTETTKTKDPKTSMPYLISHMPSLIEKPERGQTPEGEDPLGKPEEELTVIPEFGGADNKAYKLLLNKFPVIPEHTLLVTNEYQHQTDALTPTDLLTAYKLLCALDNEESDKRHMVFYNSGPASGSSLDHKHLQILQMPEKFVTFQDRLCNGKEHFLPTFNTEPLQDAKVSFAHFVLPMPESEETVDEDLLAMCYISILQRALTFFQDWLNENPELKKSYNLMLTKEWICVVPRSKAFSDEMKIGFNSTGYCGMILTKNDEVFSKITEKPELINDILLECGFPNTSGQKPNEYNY
Protocol: (§1) L'activité de l'Ap4A-phosphorylase a été déterminée à 37°C. Le mélange d'incubation standard contenait, dans un volume final de 25 ou 50 µl, du tampon 50 mM acide 4-(2-hydroxyéthyl)-1-pipérazine éthane sulfonique (Hepes)/KOH (pH 8,2), 1 mM 2-mercaptoéthanol, 2 % de glycérol, 500 µM MnCl2, […], 500 uM de [^3H]Ap4A (1 pmol = 20 cpm), de la sérum-albumine bovine (0,4 mg/ml) et une solution d'enzyme diluée de façon appropriée en présence de 2 mg/ml de sérum-albumine bovine. Dans certains cas, l'activité a été suivie à l'aide de [^32P]K2HPO4.
Pour mesurer les vitesses initiales, de phosphorolyse, on a déposé des prélèvements de 2 µl sur des couches minces de polyéthylèneimine-cellulose contenant un indicateur fluorescent (foumies par MERCK) après 2, 4, 8 et 16 min de réaction.
Des standards d'Ap4A et d'ADP ont été ajoutés et les chromatogrammes ont été développés tout d'abord pendant 15 min dans le méthanol à 75 %, puis pendant 1 h dans du chlorure de lithium 0,85 M. Les valeurs Rf des composés standards étaient respectivement de 0,15 (Ap4A) et 0,25 (ADP), la valeur Rf du phosphate était de 0,55. Les taches d'ADP visualisées sous lumière ultraviolette ont été découpées et immergées dans 5 ml de mélange de scintillation et la radioactivité a été mesurée. Au cours des différentes étapes de purification, l'enzyme a été testée en l'absence de radioactivité; les fractions actives ont été afors directement identifiées sur les chromatogrammes sous lumière ultraviolette.
La dégradation enzymatique de l'Ap4A par l'enzyme selon l'invention, c'est-à-dire l'Ap4A-phosphorylase, a été caractérisée par identification des produits de ladite réaction de dégradation par co-migration avec des composés standards authentiques sur des couches minces de polyéthylèneimine-cellulose. Cette identification a été confirmée sur une colonne de Lichrosorb RP-18 (MERCK) en utilisant un système HPLC (chromatographie liquide haute performance) avec une élution isocratique par du phosphate de potassium 25 mM, pH 5,3 selon la méthode de BREVET et al. décrite dans J.Biol.Chem. (1982), 257. 14613-14615. La colonne de chromatographie a été utilisée avec une pompe modèle 112, un injecteur modèle 210 et un détecteur d'absorbance modèle 160 (matériel BECKMAN), en opérant à 254 nm avec une sensibilité de 0,002 unité d'absorbance pleine échelle.

Ap4A-phosphorylase [2] = target: T1, Ap4A-phosphorylase; assay: NDP-P* exchange reaction catalysed by Ap4A-phosphorylase; assay type: biochemical; details: AMPS versus ADP
From the text: (§2) On a estimé les constantes de Michaelis Km et les vitesses d'échange pour différents NDP au pH optimum, lequel varie en fonction des substrats. Les résultats obtenus sont rassemblés dans le tableau Il ci-après ainsi que les conditions expérimentales.

Ap4A-phosphorylase [3] = target: T1, Ap4A-phosphorylase; assay: Effect of divalent metal ions on initial rates of Ap4A phosphorolysis; assay type: biochemical
Protocol: Les vitesses initiales de la phosphorolyse de l'Ap4A ont été mesurées dans un milieu contenant 50 mM Hepes/KOH (pH 8,2); 1 mM de 2-mercaptoéthanol; 2 % de glycérol et 0,4 mg/ml de sérum-albumine bovine, 5 mM K2HPO4; 500 uM [^3H] Ap4A et différentes concentrations de chlorures de manganèse, de magnésium, de calcium, de cobalt ou de cadmium.
Les résultats obtenus sont indiqués sur le graphe de la figure 2 annexée sur lequel on a porté en ordonnées les vitesses initiales de phosphorolyse de l'Ap4A exprimées en pourcentages de la vitesse observée avec 500 uM MnCl2-(36 s-') et en abscisses la concentration en ions métalliques exprimée en mM.
Les différentes courbes correspondent respectivement aux chlorures ci-après : courbe A (O - O) = MnCl2 [formula] [formula] [formula] [formula]

GMP-réductase [4] = details: enzyme from Artemia; cited from earlier work
GMP-réductase [5] = target: T2, GMP-réductase (Homo sapiens, UniProt P36959); details: enzyme from human erythrocytes; cited from earlier work
T2 construct: host or cells: human erythrocytes
T2 sequence (P36959 1-345): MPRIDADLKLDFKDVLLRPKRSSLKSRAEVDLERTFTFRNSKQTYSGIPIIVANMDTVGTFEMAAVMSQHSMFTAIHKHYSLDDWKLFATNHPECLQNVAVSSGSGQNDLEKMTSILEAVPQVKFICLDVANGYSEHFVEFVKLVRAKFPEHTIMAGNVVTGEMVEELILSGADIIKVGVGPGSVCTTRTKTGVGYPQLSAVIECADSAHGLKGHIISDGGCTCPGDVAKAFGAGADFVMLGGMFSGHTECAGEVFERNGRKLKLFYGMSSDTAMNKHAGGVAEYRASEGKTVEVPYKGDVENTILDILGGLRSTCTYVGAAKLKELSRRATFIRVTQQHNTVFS

AMP-désaminase = target: T3, AMP-désaminase (Rattus norvegicus, UniProt P10759); details: enzyme from rat muscle; cited from earlier work
T3 construct: host or cells: rat muscle
T3 sequence (P10759 1-747): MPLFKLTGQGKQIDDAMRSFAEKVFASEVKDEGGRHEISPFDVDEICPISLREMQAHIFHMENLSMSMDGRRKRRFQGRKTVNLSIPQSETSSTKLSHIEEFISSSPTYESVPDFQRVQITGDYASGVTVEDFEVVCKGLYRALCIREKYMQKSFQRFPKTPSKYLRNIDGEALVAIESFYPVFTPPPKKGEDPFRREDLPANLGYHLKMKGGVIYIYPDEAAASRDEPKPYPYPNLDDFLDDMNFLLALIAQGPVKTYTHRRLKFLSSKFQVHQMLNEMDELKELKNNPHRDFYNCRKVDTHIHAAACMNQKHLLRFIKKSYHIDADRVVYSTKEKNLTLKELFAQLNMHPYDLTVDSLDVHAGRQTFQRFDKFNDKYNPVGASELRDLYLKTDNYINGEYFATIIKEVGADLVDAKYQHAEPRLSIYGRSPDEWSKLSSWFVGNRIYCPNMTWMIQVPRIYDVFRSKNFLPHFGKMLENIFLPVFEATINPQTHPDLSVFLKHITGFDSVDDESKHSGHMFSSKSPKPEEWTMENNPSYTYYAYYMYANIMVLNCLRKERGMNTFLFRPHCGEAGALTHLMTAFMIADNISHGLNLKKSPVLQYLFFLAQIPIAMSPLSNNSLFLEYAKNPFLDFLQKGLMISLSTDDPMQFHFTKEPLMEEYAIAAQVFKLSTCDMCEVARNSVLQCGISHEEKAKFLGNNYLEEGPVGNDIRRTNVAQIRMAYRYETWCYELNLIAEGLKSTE

[6] = substrate: Nc1ncnc2c1ncn2[C@@H]1O[C@H](COP(=O)(O)OS(=O)(=O)O)[C@@H](O)[C@H]1O; assay: purified protein, by the assay type; details: other: NDP-P* exchange at optimum pH, 37°C
[7] = substrate: Nc1nc2c(ncn2[C@@H]2O[C@H](COP(=O)(O)OP(=O)(O)O)[C@@H](O)[C@H]2O)c(=O)[nH]1; assay: NDP-P* exchange reaction catalysed by Ap4A-phosphorylase; assay type: biochemical, Saccharomyces cerevisiae; details: other: NDP-P* exchange at optimum pH, 37°C
From the text: as §2

[8] = substrate: Nc1ncnc2c1ncn2[C@@H]1O[C@H](COP(=O)(O)OP(=O)(O)O)[C@@H](O)[C@H]1O; assay: as above; assay type: biochemical, Saccharomyces cerevisiae; details: other: NDP-P* exchange at optimum pH, 37°C
From the text: as §2

[9] = substrate: Nc1ccn([C@@H]2O[C@H](COP(=O)(O)OP(=O)(O)O)[C@@H](O)[C@H]2O)c(=O)n1; assay: as above; assay type: biochemical, Saccharomyces cerevisiae; details: other: NDP-P* exchange at optimum pH, 37°C
From the text: as §2

[10] = substrate: O=c1ccn([C@@H]2O[C@H](COP(=O)(O)OP(=O)(O)O)[C@@H](O)[C@H]2O)c(=O)[nH]1; assay: as above; assay type: biochemical, Saccharomyces cerevisiae; details: other: NDP-P* exchange at optimum pH, 37°C
From the text: as §2

[11] = substrate: Nc1ncnc2c1ncn2[C@@H]1O[C@H](COP(=O)(O)OP(=O)(O)OP(=O)(O)OP(=O)(O)OC[C@H]2O[C@@H](n3cnc4c(N)ncnc43)[C@H](O)[C@@H]2O)[C@@H](O)[C@H]1O; assay: Ap4A-phosphorylase activity: initial rates of phosphorolysis of Ap4A and related substrates (PEI-cellulose TLC, radioactivity); assay type: biochemical, Saccharomyces cerevisiae; details: other: 37°C, 50 mM Hepes/KOH pH 8,2, 500 µM MnCl2, 10 mM K2HPO4, 1 mM 2-mercaptoéthanol, 2 % glycérol, pH 8.2
Protocol: as §1
Pour mesurer les vitesses initiales, de phosphorolyse, on a déposé des prélèvements de 2 µl sur des couches minces de polyéthylèneimine-cellulose contenant un indicateur fluorescent (foumies par MERCK) après 2, 4, 8 et 16 min de réaction. […]
La dégradation enzymatique de l'Ap4A par l'enzyme selon l'invention, c'est-à-dire l'Ap4A-phosphorylase, a été caractérisée par identification des produits de ladite réaction de dégradation par co-migration avec des composés standards authentiques sur des couches minces de polyéthylèneimine-cellulose. […] La colonne de chromatographie a été utilisée avec une pompe modèle 112, un injecteur modèle 210 et un détecteur d'absorbance modèle 160 (matériel BECKMAN), en opérant à 254 nm avec une sensibilité de 0,002 unité d'absorbance pleine échelle.

Nc1ncnc2c1ncn2[C@@H]1O[C@H](COP(=O)(O)OP(=O)(O)OP(=O)(O)OC[C@H]2O[C@@H](n3cnc4c(N)ncnc43)[C@H](O)[C@@H]2O)[C@@H](O)[C@H]1O (single isomer, unassigned; diad) [Ap,A, Diadénosine triphosphate]
substrat de l'Ap4A-phosphorylase (behaviour as substrate) (Ap4A-phosphorylase [1]): ne soient pas des substrats

Nc1ncnc2c1ncn2[C@@H]1O[C@H](COP(=O)(O)OS(=O)(=O)O)[C@@H](O)[C@H]1O [AMPS, adénosine 5'-phosphosulfate]
rapport V/km, fold higher than for ADP (Ap4A-phosphorylase [2]): ~5 fois

phosphate
Km (Ap4A-phosphorylase [1]; phosphorolysis of Ap4A, read-out: Km du phosphate): 1 mM

MnCl2
vitesse initiale de phosphorolyse de l'Ap4A (Ap4A-phosphorylase [3]; 500 uM MnCl2, 5 mM K2HPO4, 500 uM [3H]Ap4A, pH 8,2 (100 % reference of figure 2)): 36 s-' | activity of metal ions in supporting phosphorolyse de l'Ap4A (Ap4A-phosphorylase [3]; chlorides of Mn, Mg, Ca, Co, Cd at various concentrations (figure 2)): les plus actifs

pyrophosphate
conversion de l'Ap4A when phosphate is replaced (Ap4A-phosphorylase [1]): aucune conversion

Nc1ncnc2c1ncn2[C@@H]1O[C@H](COP(=O)(O)OP(=O)(O)OP(=O)(O)OP(=O)(O)O)[C@@H](O)[C@H]1O [p4A, Adénosine tétraphosphate]
substrat de l'Ap4A-phosphorylase (behaviour as substrate) (Ap4A-phosphorylase [1]): ne soient pas des substrats

Nc1nc2c(ncn2[C@@H]2O[C@H](COP(=O)(O)OP(=O)(O)OP(=O)(O)OP(=O)(O)OC[C@H]3O[C@@H](n4cnc5c(=O)[nH]c(N)nc54)[C@H](O)[C@@H]3O)[C@@H](O)[C@H]2O)c(=O)[nH]1 [Gp4G, Diguanosine tétraphosphate]
substrat de l'Ap4A-phosphorylase (behaviour as substrate) (Ap4A-phosphorylase [1]): substrats | vitesses de phosphorolyse, % du taux observé pour l'Ap4A (Ap4A-phosphorylase [1]): 40% | effect on GMP-réductase (GMP-réductase [4]): effet positif spécifique | effect on GMP-réductase (GMP-réductase [5]): effet positif spécifique

Nc1ncnc2c1ncn2[C@@H]1O[C@H](COP(=O)(O)OP(=O)(O)OP(=O)(O)OP(=O)(O)OP(=O)(O)OC[C@H]2O[C@@H](n3cnc4c(N)ncnc43)[C@H](O)[C@@H]2O)[C@@H](O)[C@H]1O (single isomer, unassigned; diad) [Ap5A, Diadénosine pentaphosphate]
substrat de l'Ap4A-phosphorylase (behaviour as substrate) (Ap4A-phosphorylase [1]): substrats | vitesses de phosphorolyse, % du taux observé pour l'Ap4A (Ap4A-phosphorylase [1]): 50%

Nc1ncnc2c1ncn2[C@@H]1O[C@H](COP(=O)(O)OP(=O)(O)OP(=O)(O)OP(=O)(O)OC[C@H]2O[C@@H](n3cnc4c(N)ncnc43)[C@H](O)[C@@H]2O)[C@@H](O)[C@H]1O (single isomer, unassigned; diad) [Ap4A, 5',5"'-P^1,P^4-diadénosine-tétraphosphate]
vitesse de la réaction de phosphorolyse (Ap4A-phosphorylase [1]; Ap4A saturant): 36 s⁻¹ | substrat de l'Ap4A-phosphorylase (behaviour as substrate) (Ap4A-phosphorylase [1]): substrat préféré | effect on activité de l'AMP-désaminase (AMP-désaminase): double l'activité

sulfate
conversion de l'Ap4A when phosphate is replaced (Ap4A-phosphorylase [1]): aucune conversion

B1: Ap4A-phosphorylase (Saccharomyces cerevisiae S288C) (protein)
chain: T1 sequence (P16550 1-321)
notes: l'Ap4A phosphorylase est constituée d'une seule chaîne; endogenous in cells; host or cells: Saccharomyces cerevisiae yeast cells; enzyme purified by ammonium sulfate, DEAE-Sephacel, Sephadex G-100, hydroxyapatite and Sephadex G-75 superfine
Km [6]: 500 µM | Km [7]: 700 µM | Km [8]: 740 µM | Km [9]: 2800 µM | Km [10]: 3.7 mM | Km [11]: 60 µM
